How the values were obtained:
[1] = Cytotoxicity against human MT4 cells assessed as reduction in cell viability measured after 4 days by CellTiter 96 Aqueous One Solution Cell Proliferation Assay; type: toxicity, cell-based; conditions: time 4 day
[2] = system: Human immunodeficiency virus 1; experiment: Anti-HIV activity against HIV-1 NL 4.3 infected in human MT4 cells assessed as inhibition of virus-induced cytopathicity measured after 4 days by CellTiter 96 Aqueous One Solution Cell Proliferation Assay; type: functional, organism-based; conditions: Human immunodeficiency virus 1, NL 4.3, MT4, 96 h
[3] = system: Human immunodeficiency virus 2; experiment: Anti-HIV activity against HIV-2 ROD infected in human MT4 cells assessed as inhibition of virus-induced cytopathicity measured after 4 days by CellTiter 96 Aqueous One Solution Cell Proliferation Assay; type: functional, organism-based; conditions: Human immunodeficiency virus 2, ROD, MT4, 96 h
[4] = Selectivity index, ratio of CC50 for cytotoxicity against human MT4 cells to EC50 for antiviral activity against HIV-2 ROD infected in human MT4 cells; type: toxicity, cell-based; conditions: read-out: Ratio CC50/EC50
[5] = Selectivity index, ratio of CC50 for cytotoxicity against human MT4 cells to EC50 for antiviral activity against HIV-1 NL 4.3 infected in human MT4 cells; type: toxicity, cell-based; conditions: read-out: Ratio CC50/EC50

For `C=C1CC[C@H]2[C@@H](/C=C(\C)C(=O)[C@@]3(OC(C)=O)C[C@H](C)[C@H](OC(=O)c4ccccc4)C3[C@H]1OC(C)=O)C2(C)C` (some centres undefined), the CC50 at 96 h [1] was > 100 µM, the EC50 [2] was > 100 µM and the EC50 [3] was > 100 µM.
In the case of `C/C1=C\[C@@H]2[C@H](CC/C(CSC(=O)Oc3ccccc3Br)=C\C3[C@@H](O)[C@@H](C)C[C@]3(O)C1=O)C2(C)C` (some centres undefined), the CC50 at 96 h [1] is reported as 45.2 µM, the EC50 [2] is reported as > 45.2 µM and the EC50 [3] is reported as > 45.2 µM.
In the case of `C/C1=C\[C@@H]2[C@H](CC/C(CSC(=O)Oc3ccc(F)cc3)=C\C3[C@@H](O)[C@@H](C)C[C@]3(O)C1=O)C2(C)C` (some centres undefined), the CC50 at 96 h [1] is reported as 45.2 µM, the EC50 [2] is reported as > 45.2 µM and the EC50 [3] is reported as > 45.2 µM.
In the case of `C/C1=C\[C@@H]2[C@H](CC/C(CSC(=O)Oc3ccccc3)=C\C3[C@@H](O)[C@@H](C)C[C@]3(O)C1=O)C2(C)C` (some centres undefined), the CC50 at 96 h [1] is reported as 13.1 µM, the EC50 [2] is reported as > 13.1 µM and the EC50 [3] is reported as 13.1 µM.
For `C/C1=C\[C@@H]2[C@H](CC/C(CSC(=O)Oc3c(C)cccc3C)=C\C3[C@@H](O)[C@@H](C)C[C@]3(O)C1=O)C2(C)C` (some centres undefined), the CC50 at 96 h [1] was > 100 µM, the EC50 [2] was > 100 µM and the EC50 [3] was > 100 µM.
With `C/C1=C\[C@@H]2[C@H](CC/C(CSC(=O)Oc3cc(F)cc(F)c3)=C\C3[C@@H](O)[C@@H](C)C[C@]3(O)C1=O)C2(C)C` (some centres undefined) the CC50 at 96 h [1] was 45 µM, the EC50 [2] was > 45 µM and the EC50 [3] was > 45 µM.
In the case of `C/C1=C\[C@@H]2[C@H](CC/C(CSC(=O)Oc3ccc(Cl)cc3)=C\C3[C@@H](O)[C@@H](C)C[C@]3(O)C1=O)C2(C)C` (some centres undefined), the CC50 at 96 h [1] is reported as 45.4 µM, the EC50 [2] is reported as > 45.4 µM and the EC50 [3] is reported as > 45.4 µM.
With `C/C1=C\[C@@H]2[C@H](CC/C(CSC(=O)Oc3ccc(C)cc3)=C\C3[C@@H](O)[C@@H](C)C[C@]3(O)C1=O)C2(C)C` (some centres undefined) the selectivity ratio [4] was > 6.8, the CC50 at 96 h [1] was 45.1 µM and the selectivity ratio [5] was > 4. For the same compound, the EC50 [2] was 11.3 µM and the EC50 [3] was 6.6 µM.
With `COc1ccc(OC(=O)SC/C2=C/C3[C@@H](O)[C@@H](C)C[C@]3(O)C(=O)/C(C)=C/[C@@H]3[C@H](CC2)C3(C)C)cc1` (some centres undefined) the CC50 at 96 h [1] was 47.4 µM, the EC50 [2] was > 47.4 µM and the EC50 [3] was > 47.4 µM.

From ChEMBL document CHEMBL6182859, “Synthesis of Thioloformate-Containing Lathyrane Diterpene Derivates via a [3,3] Sigmatropic Rearrangement and Their Anti-HIV Activity” (J Nat Prod, 2025)
